According to PubChem BioAssay AID1963841 (Molecular Pharmacology Branch, DTP, NCI, 2024):

Tested on: 439559-082-T-J2-PDC spheroid viability
Assay: Anticancer human tumor 439559-082-T-J2-PDC patient-derived colon adenocarcinoma cell line growth inhibition [POLQ]
Settings: spheroids with HUVEC and MSC; for IC50: curve of first compound; for viability, T/C: stronger effect = lower value
Description: Multicellular complex tumor spheroid response to Polymerase (POL) inhibitors (novobiocin, ART-558, RP6685) in combination with a variety of drugs and investigational agents in selected tumor cell lines
The POL inhibitors (novobiocin, ART-558, and RP6685) were evaluated both individually and in combination with standard of care and investigational anticancer small molecules within a complex spheroid model of solid tumors. . Complex spheroids include a stromal component modeled by human endothelial cells (HUVEC) and fibroblasts modeled by human mesenchymal stem cells (MSCs). The concentration ranges selected for each drug and investigational agent were based upon clinically achievable concentrations if the clinical Cmax of the agent was known.
Compounds. The drugs and investigational agents: novobiocin (NSC847541), ART-558 (NSC835418), RP-6685 (NSC848927), peposertib (NSC802822), ceralasertib (NSC780249), elimusertib (NSC800525), camonsertib (NSC841442), AZD-1390 (NSC803789), olaparib (NSC753686), talazoparib (NSC767125), rucaparib (NSC756644), sotorasib (NSC818433), MRTX-1133 (NSC836407), SN-38 (NSC673596), topotecan (NSC609699), epotoside (NSC141540), doxorubicin (NSC123127), gemcitabine (NSC613327), 5-fluorouracil (NSC19893), paclitaxel (NSC125973), vemurafenib (NSC761431), MSA-2 (NSC828583), SN-011 (NSC837082), adavosertib (NSC754352), prexasertib (NSC758257), carboplatin (NSC241240) and oxaliplatin (NSC266046), were obtained from the National Cancer Institute (NCI) Developmental Therapeutics Program Chemical Repository (21). The FDA-approved anticancer drug set is available from the Developmental Therapeutics Program at https://dtp.cancer.gov/organization/dscb/obtaining/. […] The stock solutions were prepared in dimethyl sulfoxide (DMSO, Sigma-Aldrich, St. Louis, MO, cat. D2650), except for the platinum compounds which were prepared in saline (Quality Biological, Gaithersburg, MD, cat. 114-055-101), at 800-fold the tested concentration and stored at -70 degrees C prior to their use. All drugs and investigational agents were tested over a range starting from a high concentration at or near the clinical Cmax and decreasing in half-log increments. If the clinical Cmax for an agent had not been determined, the highest concentration tested was 10 microM, except for SN-38, which was tested at a high concentration of 1 microM.
Cell Culture. All cells were maintained in an incubator at 37 degrees C and 5% CO2 with 95% humidity. The PDC lines were cultured according to standard operating procedures established by the NCI PDMR (https://pdmr.cancer.gov). Table 3 of the manuscript, lists the cell lines along with the number of the three cell types plated to form the mct-spheroids and media for tumor cell growth. After thawing, all PDC lines, except 997537-175-T-J1-PDC and 415267-285-R-J2-PDC, were cultured in Matrigel-coated flasks prepared with a working solution of 1X Ham's F-12 nutrient mix, without supplementation (Thermo Fisher Scientific, cat. 11765054), 100 U/mL penicillin-streptomycin (Thermo Fisher Scientific, cat. 15140122), and 2.5% Matrigel (Corning Inc., Corning, NY, cat. 354248) for the first three passages. The two PDC lines 997537-175-T-J1-PDC and 415267-285-R-J2-PDC were cultured on uncoated flasks. The 857933-349-R-J2-PDC line was cultured in 6C/Colon 1B media containing advanced DMEM/F-12 (Thermo Fisher Scientific, cat. 12634028), 10 mM HEPES (Thermo Fisher Scientific, cat. 15630080), 1X GlutaMAX supplement (Thermo Fisher Scientific, cat. 35050061), 0.1 mg/mL primocin (InvivoGen, San Diego, CA, cat. ant-pm-2), 10% defined fetal bovine serum, heat inactivated (HyClone Laboratories Inc., Logan, UT, cat. SH30070.03HI), 50% L-WRN conditioned media (ATCC, cat. CRL-3276), 1.25 mM N-Acetyl-L-cysteine (Sigma-Aldrich, cat. A9165), 10 mM nicotinamide (Sigma-Aldrich, cat. N0636), 1X B-27 supplement (Thermo Fisher Scientific, cat. 17504044), 1X N-2 supplement (Thermo Fisher Scientific, cat. […]

[1] = second compound 0.0316 µM, first compound 0.0316 µM
[2] = second compound 0.0316 µM, first compound 0.1 µM
[3] = second compound 0.0316 µM, first compound 0.316 µM
[4] = second compound 0.0316 µM, first compound 1 µM
[5] = second compound 0.1 µM, first compound 0.0316 µM
[6] = second compound 0.1 µM, first compound 0.1 µM
[7] = second compound 0.1 µM, first compound 0.316 µM
[8] = second compound 0.1 µM, first compound 1 µM
[9] = second compound 0.316 µM, first compound 0.0316 µM
[10] = second compound 0.316 µM, first compound 0.1 µM
[11] = second compound 0.316 µM, first compound 0.316 µM
[12] = second compound 0.316 µM, first compound 1 µM
[13] = second compound 1 µM, first compound 0.0316 µM
[14] = second compound 1 µM, first compound 0.1 µM
[15] = second compound 1 µM, first compound 0.316 µM
[16] = second compound 1 µM, first compound 1 µM
[17] = second compound 3.16 µM, first compound 0.0316 µM
[18] = second compound 3.16 µM, first compound 0.1 µM
[19] = second compound 3.16 µM, first compound 0.316 µM
[20] = second compound 3.16 µM, first compound 1 µM
[21] = second compound 10 µM, first compound 0.0316 µM
[22] = second compound 10 µM, first compound 0.1 µM
[23] = second compound 10 µM, first compound 0.316 µM
[24] = second compound 10 µM, first compound 1 µM
[25] = second compound 0.0316 µM, first compound 3.16 µM
[26] = second compound 0.0316 µM, first compound 10 µM
[27] = second compound 0.1 µM, first compound 3.16 µM
[28] = second compound 0.1 µM, first compound 10 µM
[29] = second compound 0.316 µM, first compound 3.16 µM
[30] = second compound 0.316 µM, first compound 10 µM
[31] = second compound 1 µM, first compound 3.16 µM
[32] = second compound 1 µM, first compound 10 µM
[33] = second compound 3.16 µM, first compound 3.16 µM
[34] = second compound 3.16 µM, first compound 10 µM
[35] = second compound 10 µM, first compound 3.16 µM
[36] = second compound 10 µM, first compound 10 µM
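Note: spheroids exposed to compounds for seven days before readout.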
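Throughout, for viability, T/C: 100% = DMSO vehicle control viability.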

Work on `CCc1c2c(nc3ccc(O)cc13)-c1cc3c(c(=O)n1C2)COC(=O)[C@]3(O)CC` + COC1C(OC(N)=O)C(O)C(Oc2ccc3c(O)c(NC(=O)c4ccc(O)c(CC=C(C)C)c4)c(=O)oc3c2C)OC1(C)C yielded an IC50 (second compound 0.0316 µM) of 0.487 µM, an IC50 (second compound 0.1 µM) of 0.401 µM and an IC50 (second compound 0.316 µM) of 0.458 µM. For the same compound, the IC50 (second compound 1 µM) was 0.377 µM, the IC50 (second compound 3.16 µM) was 0.332 µM and the IC50 (second compound 10 µM) was 0.287 µM. For the same compound, the viability, T/C (second compound 0.0316 µM, first compound 0.00316 µM) was 90.4%, the viability, T/C (second compound 0.0316 µM, first compound 0.01 µM) was 83.8% and the viability, T/C [1] was 69.8%. It also gave a viability, T/C [2] of 69.3%, a viability, T/C [3] of 58.9% and a viability, T/C [4] of 39%. It also gave a viability, T/C (second compound 0.1 µM, first compound 0.00316 µM) of 97.3%, a viability, T/C (second compound 0.1 µM, first compound 0.01 µM) of 84.3% and a viability, T/C [5] of 70.7%. The viability, T/C [6] was 66.7%, the viability, T/C [7] was 57.7% and the viability, T/C [8] was 36.6%. It also gave a viability, T/C (second compound 0.316 µM, first compound 0.00316 µM) of 98.5%, a viability, T/C (second compound 0.316 µM, first compound 0.01 µM) of 92.2% and a viability, T/C [9] of 73.1%. For the same compound, the viability, T/C [10] was 67.9%, the viability, T/C [11] was 58.6% and the viability, T/C [12] was 38.5%. For the same compound, the viability, T/C (second compound 1 µM, first compound 0.00316 µM) was 95.8%, the viability, T/C (second compound 1 µM, first compound 0.01 µM) was 83.7% and the viability, T/C [13] was 65.4%. The viability, T/C [14] was 63%, the viability, T/C [15] was 59.6% and the viability, T/C [16] was 36.8%. It also gave a viability, T/C (second compound 3.16 µM, first compound 0.00316 µM) of 90.5%, a viability, T/C (second compound 3.16 µM, first compound 0.01 µM) of 81.3% and a viability, T/C [17] of 71.8%. It also gave a viability, T/C [18] of 62%, a viability, T/C [19] of 52.7% and a viability, T/C [20] of 36.8%. For the same compound, the viability, T/C (second compound 10 µM, first compound 0.00316 µM) was 80.8%, the viability, T/C (second compound 10 µM, first compound 0.01 µM) was 82% and the viability, T/C [21] was 64.6%. It also gave a viability, T/C [22] of 61.5%, a viability, T/C [23] of 53.1% and a viability, T/C [24] of 28.3%.

`COc1cc(C2c3cc4c(cc3C(OC3OC5COC(C)OC5C(O)C3O)C3COC(=O)C23)OCO4)cc(OC)c1O` (stereo unspecified) + COC1C(OC(N)=O)C(O)C(Oc2ccc3c(O)c(NC(=O)c4ccc(O)c(CC=C(C)C)c4)c(=O)oc3c2C)OC1(C)C gave an IC50 (second compound 0.0316 µM) of over 10 µM, an IC50 (second compound 0.1 µM) of over 10 µM and an IC50 (second compound 0.316 µM) of over 10 µM. The IC50 (second compound 1 µM) was over 10 µM, the IC50 (second compound 3.16 µM) was over 10 µM and the IC50 (second compound 10 µM) was over 10 µM. It also gave a viability, T/C [1] of 94.7%, a viability, T/C [2] of 97.2% and a viability, T/C [3] of 102%. The viability, T/C [4] was 98%, the viability, T/C [25] was 90% and the viability, T/C [26] was 76.8%. It also gave a viability, T/C [5] of 108%, a viability, T/C [6] of 108% and a viability, T/C [7] of 102%. The viability, T/C [8] was 90.7%, the viability, T/C [27] was 92.7% and the viability, T/C [28] was 72.9%. It also gave a viability, T/C [9] of 102%, a viability, T/C [10] of 105% and a viability, T/C [11] of 91%. For the same compound, the viability, T/C [12] was 98.6%, the viability, T/C [29] was 89.5% and the viability, T/C [30] was 69.8%. It also gave a viability, T/C [13] of 102%, a viability, T/C [14] of 94.7% and a viability, T/C [15] of 98.6%. For the same compound, the viability, T/C [16] was 100%, the viability, T/C [31] was 87.1% and the viability, T/C [32] was 71.5%. The viability, T/C [17] was 101%, the viability, T/C [18] was 101% and the viability, T/C [19] was 99.1%. For the same compound, the viability, T/C [20] was 94.5%, the viability, T/C [33] was 91.4% and the viability, T/C [34] was 73.1%. The viability, T/C [21] was 100%, the viability, T/C [22] was 103% and the viability, T/C [23] was 100%. The viability, T/C [24] was 92.4%, the viability, T/C [35] was 86.8% and the viability, T/C [36] was 71.7%.

`COc1ccc([C@@H](O)c2cc(-c3ncnc4cc(N5CCOCC5)ccc34)c(F)cc2Cl)nn1` + COC1C(OC(N)=O)C(O)C(Oc2ccc3c(O)c(NC(=O)c4ccc(O)c(CC=C(C)C)c4)c(=O)oc3c2C)OC1(C)C was tested, and the IC50 (second compound 0.0316 µM) was over 10 µM, the IC50 (second compound 0.1 µM) was over 10 µM and the IC50 (second compound 0.316 µM) was over 10 µM. The IC50 (second compound 1 µM) was over 10 µM, the IC50 (second compound 3.16 µM) was over 10 µM and the IC50 (second compound 10 µM) was over 10 µM. For the same compound, the viability, T/C [1] was 101%, the viability, T/C [2] was 96.5% and the viability, T/C [3] was 99.1%. The viability, T/C [4] was 95.1%, the viability, T/C [25] was 90.7% and the viability, T/C [26] was 77.3%. For the same compound, the viability, T/C [5] was 109%, the viability, T/C [6] was 96.4% and the viability, T/C [7] was 93.5%. It also gave a viability, T/C [8] of 95.1%, a viability, T/C [27] of 83.3% and a viability, T/C [28] of 71.7%. The viability, T/C [9] was 107%, the viability, T/C [10] was 101% and the viability, T/C [11] was 92.6%. It also gave a viability, T/C [12] of 91.2%, a viability, T/C [29] of 89.9% and a viability, T/C [30] of 74.3%. For the same compound, the viability, T/C [13] was 100%, the viability, T/C [14] was 94% and the viability, T/C [15] was 92.9%. It also gave a viability, T/C [16] of 87.9%, a viability, T/C [31] of 86.5% and a viability, T/C [32] of 70.9%. For the same compound, the viability, T/C [17] was 96.6%, the viability, T/C [18] was 91.8% and the viability, T/C [19] was 97.7%. The viability, T/C [20] was 92%, the viability, T/C [33] was 82.3% and the viability, T/C [34] was 79.5%. It also gave a viability, T/C [21] of 102%, a viability, T/C [22] of 99.9% and a viability, T/C [23] of 86.5%. It also gave a viability, T/C [24] of 86.4%, a viability, T/C [35] of 78% and a viability, T/C [36] of 76.5%.
